In patent publication US11708326B2, “Immunomodulator compounds” (CHEMOCENTRYX, INC., priority 2017, dated 2023):
pIC50: −log10 of the molar value.

biological target: human PD-L1 / Human PD-1 (Homo sapiens (Human), UniProt Q9NZQ7); assay: Enzyme-Linked Immunosorbent Assay (ELISA), human PD-1 binding to plate-coated human PD-L1; details: PD-1/PD-L1 ELISA, absorbance at 450 nm
Description: Biological Example: Enzyme-Linked Immunosorbent Assay—ELISA
96 Well plates were coated with 1 μg/mL of human PD-L1 (obtained from R&D) in PBS overnight at 4° C. The wells were then blocked with 2% BSA in PBS (W/V) with 0.05% TWEEN-20 for 1 hour at 37° C. The plates were washed 3 times with PBS/0.05% TWEEN-20 and the compounds were serial diluted (1:5) in dilution medium and added to the ELISA plates. Human PD-1 and biotin 0.3 μg/mL (ACRO Biosystems) were added and incubated for 1 hour at 37° C. then washed 3 times with PBS/0.05% TWEEN-20. A second block was performed with 2% BSA in PBS (W/V)/0.05% TWEEN-20 for 10 min at 37° C. and was washed 3 times with PBS/0.05% TWEEN-20. Streptavidin-HRP was added for 1 hour at 37° C. then washed 3 times with PBS/0.05% TWEEN-20. TMB substrate was added and reacted for 20 min at 37° C. A stop solution (2 N aqueous H2SO4) was added. The absorbance was read at 450 nm using a micro-plate spectrophotometer.

human PD-L1 / Human PD-1, sequence (Q9NZQ7 19-239): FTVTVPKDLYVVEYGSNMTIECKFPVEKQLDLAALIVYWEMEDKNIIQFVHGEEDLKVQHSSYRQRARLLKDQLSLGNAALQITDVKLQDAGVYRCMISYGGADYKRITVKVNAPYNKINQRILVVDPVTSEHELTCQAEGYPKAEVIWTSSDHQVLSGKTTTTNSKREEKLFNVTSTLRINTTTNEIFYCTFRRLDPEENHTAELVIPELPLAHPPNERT

Cc1c(OCCCN2CCC(O)CC2)cccc1-c1cccc2c1CC[C@@H]2Oc1cc(OCc2cncc(C#N)c2)c(CN[C@@](C)(CO)C(=O)O)cc1Cl and C[C@@](CO)(NCc1cc(Cl)c(OC2CCc3c(-c4cccc(OCCCN5CC(O)C5)c4Cl)cc(F)cc32)cc1OCc1cncc(C#N)c1)C(=O)O (stereo partly shown) cannot be ordered by pIC50: ≥ 8.30 for the first, ≥ 8.30 for the second.

Cc1c(OCCCN2CCC(O)CC2)cccc1-c1cccc2c1CC[C@@H]2Oc1cc(OCCCN2CC[C@@H](O)C2)c(CN[C@@H]2CCCC[C@@H]2O)cc1Cl and N#Cc1cncc(COc2cc(O[C@H]3CCc4c(-c5cccc(OCCCN6CCC(F)CC6)c5Cl)cccc43)c(Cl)cc2CN[C@@H]2CCCC[C@H]2F)c1 cannot be ordered by pIC50: ≥ 8.30 for the first, 6.30 to 8.30 for the second.

COc1cc(OC2CCc3c(-c4cccc(OCCCN5CC(O)C5)c4Cl)cccc32)cc(OC)c1CN[C@@](C)(CO)C(=O)O (stereo partly shown) and N#Cc1cncc(COc2cc(O[C@H]3CCc4c(-c5cccc(OCCCn6ccnc6)c5Cl)cccc43)c(Cl)cc2CN[C@@H]2CCCC[C@@H]2O)c1 fall in the same range of pIC50: 6.30 to 8.30 for the first, 6.30 to 8.30 for the second.

Cc1c(OCCCN2CCC(F)CC2)cccc1-c1cc(F)cc2c1CCC2Oc1cc(OCc2cc(C#N)cc(C#N)c2)c(CN[C@H]2CCC(=O)NC2)cc1Cl (stereo partly shown) and CCOc1cc(NC2CCc3c(-c4cccc(OCCCN5CCC(C)(F)CC5)c4C)cccc32)c(Cl)cc1CNC[C@@H]1CCC(=O)N1 (stereo partly shown) fall in the same range of pIC50: 6.30 to 8.30 for the first, 6.30 to 8.30 for the second.

CCOc1cc(O[C@@H]2c3cccc(-c4cccc(OCCCN5CCC(C)(F)CC5)c4C)c3C[C@@H]2F)c(Cl)cc1CNC(C(=O)NS(C)(=O)=O)[C@@H](C)O (stereo partly shown) and CCOc1cc(NC2CCc3c(-c4cccc(OCCCN5CCCC5(C)C)c4C)cccc32)c(Cl)cc1CNC[C@@H]1CCC(=O)N1 (stereo partly shown) fall in the same range of pIC50: 6.30 to 8.30 for the first, 6.30 to 8.30 for the second.
